According to PubChem BioAssay AID330 (DTP/NCI, 2004):
Several values for one entry are separate records, joined by “and”; a condition that tells them apart may be missing. Equal entries are not always repeated. Toxic doses and inconclusive results are not listed. The calls were made as follows: active = survival T/C of 150% or more; inactive = T/C below 125% in these data.

Tested on: P388 leukemia ip, CD2F1 mice, survival T/C
Assay: NCI In Vivo Anticancer Drug Screen. Data for tumor model P388 Leukemia (intraperitoneal) in CD2F1 (CDF1) mice
Settings: endpoint: median survival time, higher = longer survival
Procedure, shortened: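 Mice carrying the transplanted tumor received test compound or vehicle. Survival was recorded in each group, and the value is the treated-group measurement divided by that of the vehicle-treated control group.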

[1] = dose: 50.0 mg/kg/injection, schedule: Q01DX009 (ip), vehicle: saline with Tween-80
[2] = dose: 100.0 mg/kg/injection, schedule: Q01DX009 (ip), vehicle: saline with Tween-80
[3] = dose: 50.0 mg/kg/injection, schedule: Q01DX005 (ip), vehicle: Klucel (hydroxypropylcellulose) (HPC)
[4] = dose: 100.0 mg/kg/injection, schedule: Q01DX005 (ip), vehicle: Klucel (hydroxypropylcellulose) (HPC)
[5] = dose: 50.0 mg/kg/injection, schedule: Q01DX009 (ip), vehicle: Klucel (hydroxypropylcellulose) (HPC)
[6] = dose: 100.0 mg/kg/injection, schedule: Q01DX009 (ip), vehicle: Klucel (hydroxypropylcellulose) (HPC)
[7] = dose: 50.0 mg/kg/injection, schedule: Q01DX009 (ip), vehicle: saline
[8] = dose: 200.0 mg/kg/injection, schedule: Q01DX009 (ip), vehicle: saline with Tween-80
[9] = dose: 200.0 mg/kg/injection, schedule: Q01DX009 (ip), vehicle: saline
[10] = dose: 60.0 mg/kg/injection, schedule: Q01DX005 (ip), vehicle: saline with Tween-80
[11] = dose: 120.0 mg/kg/injection, schedule: Q01DX005 (ip), vehicle: saline with Tween-80

Measured: T/C

CC(=O)N(CCCN1C(=O)c2ccccc2C1=O)c1ccc2c(c1)c(-c1ccccc1)nc1cc([N+](=O)[O-])ccc12
inactive: dose: 3.13 mg/kg/injection, schedule: Q01DX009 (ip), vehicle: other 98 % of control | dose: 6.25 mg/kg/injection, schedule: Q01DX009 (ip), vehicle: other 95 % of control | dose: 12.5 mg/kg/injection, schedule: Q01DX009 (ip), vehicle: other 87 % of control | dose: 50.0 mg/kg/injection, schedule: Q01DX009 (ip), vehicle: other 106 % of control | dose: 100.0 mg/kg/injection, schedule: Q01DX009 (ip), vehicle: other 96 % of control

Cc1ccc(Cl)c2ccccc12
inactive: [1] 113 % of control | [2] 108 % of control

CC12c3ccccc3C(C)(c3ccccc31)C(C(=O)O)C2Br (stereo not drawn)
inactive: [3] 100 % of control | [4] 103 % of control | dose: 200.0 mg/kg/injection, schedule: Q01DX005 (ip), vehicle: Klucel (hydroxypropylcellulose) (HPC) 95 % of control

C1CCC([Se][Se]C2CCCCC2)CC1
inactive: [5] 103 % of control | [6] 94 % of control

Cc1nc(C(=O)O)c(C)c(=O)[nH]1
inactive: dose: 0.78 mg/kg/injection, schedule: Q01DX009 (ip), vehicle: water 96 % of control | dose: 0.78 mg/kg/injection, schedule: Q04DX003 (ip), vehicle: water 91 % of control | dose: 1.56 mg/kg/injection, schedule: Q01DX009 (ip), vehicle: water 96 % of control | dose: 1.56 mg/kg/injection, schedule: Q04DX003 (ip), vehicle: water 91 % of control | dose: 3.13 mg/kg/injection, schedule: Q01DX009 (ip), vehicle: water 112 % of control | dose: 3.13 mg/kg/injection, schedule: Q04DX003 (ip), vehicle: water 98 % of control | dose: 6.25 mg/kg/injection, schedule: Q01DX009 (ip), vehicle: water 119 % of control | dose: 6.25 mg/kg/injection, schedule: Q04DX003 (ip), vehicle: water 100 % of control | dose: 12.5 mg/kg/injection, schedule: Q01DX009 (ip), vehicle: water 114 % of control | dose: 12.5 mg/kg/injection, schedule: Q04DX003 (ip), vehicle: water 101 % of control

CN(C)N=Nc1ccc(-c2ccccc2)cc1
inactive: dose: 12.5 mg/kg/injection, schedule: Q01DX009 (ip), vehicle: saline with Tween-80 100 % of control and 104 % of control | dose: 25.0 mg/kg/injection, schedule: Q01DX009 (ip), vehicle: saline with Tween-80 102 % of control and 115 % of control | [1] 101 % of control and 110 % of control | [2] 102 % of control and 117 % of control

CC(=O)c1ccccc1N=O
inactive: dose: 50.0 mg/kg/injection, schedule: Q01DX001 (ip), vehicle: other 102 % of control | dose: 100.0 mg/kg/injection, schedule: Q01DX001 (ip), vehicle: other 101 % of control and 107 % of control | dose: 200.0 mg/kg/injection, schedule: Q01DX001 (ip), vehicle: other 100 % of control | dose: 400.0 mg/kg/injection, schedule: Q01DX001 (ip), vehicle: other 102 % of control

CCN1C=C(C(=O)OC)C(N)=C(C#N)/C1=C\C=C(/C#N)C(=O)OC
inactive: dose: 100.0 mg/kg/injection, schedule: Q04DX002 (ip), vehicle: Klucel (hydroxypropylcellulose) (HPC) 92 % of control | dose: 200.0 mg/kg/injection, schedule: Q04DX002 (ip), vehicle: Klucel (hydroxypropylcellulose) (HPC) 101 % of control | dose: 400.0 mg/kg/injection, schedule: Q04DX002 (ip), vehicle: Klucel (hydroxypropylcellulose) (HPC) 89 % of control

O=C/C=C/n1ccccc1=S
inactive: dose: 10.0 mg/kg/injection, schedule: Q01DX001 (ip), vehicle: Klucel (hydroxypropylcellulose) (HPC) 109 % of control | dose: 20.0 mg/kg/injection, schedule: Q01DX001 (ip), vehicle: Klucel (hydroxypropylcellulose) (HPC) 102 % of control

CN(C)c1ccc2ncc(C(N)=O)c(N)c2c1
inactive: dose: 7.5 mg/kg/injection, schedule: Q01DX005 (ip), vehicle: Klucel (hydroxypropylcellulose) (HPC) 91 % of control | dose: 15.0 mg/kg/injection, schedule: Q01DX005 (ip), vehicle: Klucel (hydroxypropylcellulose) (HPC) 99 % of control | dose: 30.0 mg/kg/injection, schedule: Q01DX005 (ip), vehicle: Klucel (hydroxypropylcellulose) (HPC) 97 % of control

COC(=O)c1ccoc1
inactive: [1] 96 % of control | [7] 116 % of control | [2] 108 % of control | [8] 123 % of control | [9] 113 % of control | dose: 400.0 mg/kg/injection, schedule: Q01DX009 (ip), vehicle: saline 107 % of control

COc1ccccc1NC(=O)Cc1nc(=O)[nH]c(=O)[nH]1
inactive: dose: 12.5 mg/kg/injection, schedule: Q01DX009 (ip), vehicle: Klucel (hydroxypropylcellulose) (HPC) 100 % of control | dose: 25.0 mg/kg/injection, schedule: Q01DX009 (ip), vehicle: Klucel (hydroxypropylcellulose) (HPC) 90 % of control | [5] 101 % of control | [6] 102 % of control | dose: 200.0 mg/kg/injection, schedule: Q01DX009 (ip), vehicle: Klucel (hydroxypropylcellulose) (HPC) 96 % of control

CN(C)c1ccc(/C=N/c2nc(-c3ccccc3)cs2)cc1
inactive: [7] 115 % of control | dose: 100.0 mg/kg/injection, schedule: Q01DX009 (ip), vehicle: saline 111 % of control | [9] 101 % of control

CC(C)CC(N)C(=O)NC(CC(C)C)P(=O)(O)O (stereo not drawn)
inactive: [10] 106 % of control | [11] 101 % of control | dose: 240.0 mg/kg/injection, schedule: Q01DX005 (ip), vehicle: saline with Tween-80 104 % of control

CCCCCCCCCCCCCCCCCCCC(O)CCCCCCCCC (stereo not drawn)
inactive: dose: 15.0 mg/kg/injection, schedule: Q01DX005 (ip), vehicle: saline with Tween-80 102 % of control | dose: 30.0 mg/kg/injection, schedule: Q01DX005 (ip), vehicle: saline with Tween-80 94 % of control | [10] 87 % of control | [11] 86 % of control

N#Cc1ncc(C(Cl)Cl)nc1Cl
inactive: dose: 25.0 mg/kg/injection, schedule: Q01DX009 (ip), vehicle: saline 108 % of control | [7] 106 % of control

CN(C)c1nc(O)c(N=O)c(=O)[nH]1
inactive: dose: 50.0 mg/kg/injection, schedule: Q04DX002 (ip), vehicle: suspension in saline 100 % of control | dose: 100.0 mg/kg/injection, schedule: Q04DX002 (ip), vehicle: suspension in saline 107 % of control | dose: 200.0 mg/kg/injection, schedule: Q04DX002 (ip), vehicle: suspension in saline 108 % of control

O/C(=C/c1ncnc2ccccc12)c1cccc(Cl)c1
inactive: [10] 102 % of control | [11] 92 % of control

CN(CCCN(C)N=Nc1ccccc1C(=O)O)N=Nc1ccccc1C(=O)O
inactive: [2] 86 % of control | [8] 90 % of control

CSc1ccccc1C(=S)N1CCOCC1
inactive: dose: 100.0 mg/kg/injection, schedule: Q01DX001 (ip), vehicle: saline with Tween-80 100 % of control | dose: 200.0 mg/kg/injection, schedule: Q01DX001 (ip), vehicle: saline with Tween-80 90 % of control | dose: 400.0 mg/kg/injection, schedule: Q01DX001 (ip), vehicle: saline with Tween-80 109 % of control

CC(=O)NN=Nc1ccc(C)cc1
inactive: [3] 105 % of control | [4] 102 % of control
